In patent US12503426B2, “Synthetic derivatives of oleoyl-lysophosphatidylinositol (oleoyl-LPI) and uses thereof” (LIPOVEXA SRL, priority 2017, dated 2025):

What was measured:
[1] = test system: NCI-H716 cells; test: GLP-1 secretion in NCI-H716 cells, in vitro human L cells model (Examples 30-33); format: cell-based
Description: (§1) To evaluate the GLP-1 biosynthesis and secreting capabilities of the compounds of formula I in vitro using the human-derived cell line NCI-H716, 50,000 such cells were seeded per well of a 24-well plate pre-coated with a thin layer of Matrigel (0.15 mg/ml) in RPMI complete (RPMI additioned with FBS 10%, Glucose 2 g/L, Glutamine 4 mM, Sodium Bicarbonate 2 g/L, Pen/Strep 1× pH 7.4 at 37° C.) and incubated at 37° C. in humidified 5% CO2 atmosphere to induce endocrine differentiation.
After 48 hours, media was withdrawn and cells washed once with warm HBSS (Hank's balanced salt solution) and then incubated in duplicate for 2 hours with the different dilutions of the oleoyl-LPI, OEA, DMSO (as negative control), a test compound of formula I, and KR-62436 10 μg/ml, all dissolved in RPMI serum free (RPMI complete without FBS) at 37° C. in humidified 5% CO2 incubator. Supernatant were quickly collected on ice and stored at −80° C. before quantification of GLP-1 with a commercial ELISA (EMD Millipore) specific for active-GLP-1 species.
as §1, with “1×pH” for “1× pH”
After 48 hours, media was withdrawn and cells washed twice with pre-warm HBSS (Hank's balanced salt solution) and then incubated in duplicate for 2 hours with 250 μl of 20 μM of either oleoyl-LPI, DMSO (as negative control) or a test compound of formula I, and […], all dissolved in RPMI serum free (RPMI complete without FBS) at 37° C. in humidified 5% CO2 incubator. Compounds of formula I tested were ps297b, ps316a, ps318a, ps319a, ps321a and ps323.
Supernatant were quickly collected on ice and stored at −80° C. before quantification of GLP-1 with a commercial ELISA (EMD Millipore) specific for active-GLP-1 species (e.g., GLP-1 (7-36) amide) and […]).
Compounds of formula I were tested for GLP-1 secretion in NCI-H716 cells essentially as describe in examples 30 and 31 above. EC50 GLP-1 secretion readout results were standardized relative to maximum GLP-1 secretion obtained with oleoyl-LPI. EC50 readout results were rated as low GLP-1 secretion activity (0-20% of maximum GLP-1 secretion achieved with oleoyl-LPI), moderate (21-79% of maximum GLP-1 secretion achieved with oleoyl-LPI), and high GLP-1 activity (80% and more of maximum GLP-1 secretion achieved with oleoyl-LPI). Table 3 also outlines the R1, R2 and R3 substituents of the compounds of formula I.

[2] = test system: colonic cells of the GI tract obtained from guinea pig; test: Ex vivo GLP-1 biosynthesis and secretion, guinea pig GI tract cells; format: cell-based
Description: To test for this, a pregnant guinea pig was anesthetized with isoflurane and sacrificed via intra-cardial injection of pentobarbital. Colon and rectum were quickly collected and intraluminal content washed out with ice-cold HBSS. After a thorough cleansing from the faecal material, and gentle scraping of the internal mucosa, the tissue was minced into 3 to 5-millimetre pieces and resuspended into 50 ml of ice cold HBSS. Pellet was spun down and washed again in 50 ml of ice-cold HBSS. Supernatant was carefully removed, and the epithelial fragments were then resuspended for 30 minutes at 37° C. into a 5 ml solution of HEPES 25 mM, collagenase-P 1 mg/ml in HBSS, pH 7.4 at 37° C.
The tissue was then pelleted and resuspended further for about 30 to 40 additional minutes at 37° C. within a 10 ml solution of 1 mg/ml collagenase-P as above.
After the digestion, about 40 ml of pre-warmed DMEM complete media was added (FBS 10%, glucose 4.5 g/L, glutamine 4 mM, sodium pyruvate 1 mM, HEPES 25 mM, sodium bicarbonate 3.7 g/L, Pen/Strep 1× and Ciprofloxacin 10 μg/ml pH 7.4 at 37° C.). Crypts and individual cells were isolated with a […] nylon strainer, spun down at 200 g for 5 minutes, resuspended into 10 ml of DMEM complete media and plated into 20 wells of a 24-well plate coated with a 3D gel of 3 mg/ml Matrigel (BD, Biosciences, Oxford, UK). After one day of incubation at 37° C. 5% CO2 in a humidified incubator, cells were washed with 500 μl of warm HBSS, and treated with 250 μl DMEM serum free (Complete medium without FBS) additioned with KR-62436 10 μg/ml and individually the following drugs or compounds: Forskolin and IBMX (20 μM each), oleoyl-LPI, and the two oleoyl-LPI analogs and/or derivatives ps297b (prepared as described in example 13) and ps316a (prepared as described in example 22) were all tested in quadruplicate at 20 μM.
After a 2-hour long incubation at 37 C 5% CO2, the supernatants were collected on ice, and quickly stored at […]. Active GLP-1 levels (7-37 amide and 7-36) were quantified on 50 μl of supernatant with an ELISA commercial kit (EMD Millipore). DMSO was used as a negative control, the combination of Forskolin and IBMX was included as positive control activators GLP-1. GLP-1 levels measured were standardized against the DMSO control.
The EC50 levels each one of oleoyl-LPI, compound ps297b and compound ps316a were also measured in quadruplicates at the conclusion of the 2 hour incubation. Guinea pig cells obtained as described above were also incubated with […] in quadruplicates and subjected to 2-hour long incubation at 37 C 5% CO2 as described above and EC50 levels measured.

[3] = test system: Danio rerio larvae; test: Zebrafish toxicity test; format: in vivo; conditions: two-days old larvae treated for 3 days; heartbeat, movement, teratogenicity; preliminary experiment
Text: About two-days old Danio rerio larvae may be dechorionated and treated for about 3 days with increasing amount of any synthetic compound of formula I or salt or solvate thereof of this invention. The cardiotoxicity effect of the compound or salt or solvate may be assessed by measuring the heartbeat, the movement, and teratogenicity (hatching rate, mortality rate (LD50). The experiment may be repeated for three times or more times e.g., with about 10 larvae per concentration tested.
Two-days old Danio rerio larvae were dechorionated and treated for 3 days with increasing amount of a synthetic compound of formula I such as ps297b.

[4] = test system: wild type mice; test: Oral Glucose GLP-1 secretion test; format: in vivo; conditions: oral gavage 20 mg/kg, samples 2 minutes post glucose load, N=3
Description: Active GLP-1 levels were measured in samples collected 2 minutes post glucose load. N=3
In a slight variation on the above method GLP-1 measurement in mice can be carried out by Peripheral GLP-1 stimulation and measurement in C57bl/6J mice. After 6 hours of fasting, the mice are weighed, and drug volumes are calculated. […] At 2 minutes post-glucose gavage, a blood sample is collected from the submandibular vein into an EDTA coated prechilled tube containing a panel of protease inhibitors. The plasma is separated by spinning at 1,500 g for 20 minutes at 4 C. the plasma is then collected and snap frozen on dry ice and store at −20 C before proceeding with hormone quantification. For hormone quantification the samples are thawed and total GLP-1 levels are quantified, GLP1(7-36)amide+GLP-1(9-36)amide, in 20 μL of plasma with the commercial ELISA kit from Millipore EZGLP1T-36K. This method is also described in Windelov J A et al Diabetologia. […]
Mice were sampled at about 2 minutes post glucose load, 20 μl of arterial blood may be sampled in K3-EDTA and KR-62436 containing tubes to collect plasma and samples are quickly store at −80° C. Plasma samples of 4 to 6 animals may be pool together and assayed to quantify the levels of active GLP-1 (such as GLP-1 (7-36)amide) using commercially available ELISA kits. […] Active GLP-1 levels were measured in samples collected 2 minutes post glucose load. […]

## CCCCCCCC/C=C\CCCCCCCC(=O)Nc1ccc(-c2nnn[nH]2)cc1 [ps297b]
[1]; 20 μM, 2 hours, normalized against DMSO vehicle control
  GLP-1 biosynthesis and secretion from NCI-H716 L cells: able to mediate GLP-1 biosynthesis and secretion
[1]; NCI-H716 cells, 20 μM, 2 hours
  level of GLP-1 biosynthesis and secretion compared with oleoyl-LPI: comparable to that of oleoyl-LPI
[1]; NCI-H716 cells, standardized relative to maximum GLP-1 secretion obtained with oleoyl-LPI
  GLP-1 secretion Activity relative to oleoyl-LPI: High (high GLP-1 activity (80% and more of maximum GLP-1 secretion achieved with oleoyl-LPI))
[1]; summary statement, compared with oleoyl-LPI
  activity in inducing and/or increasing secretion of GLP-1 from cells of the GI tract: equal to or higher than oleoyl-LPI
[2]; 20 μM, 2 hours, standardized against DMSO control
  GLP-1 biosynthesis and secretion ex vivo: stimulated biosynthesis and secretion
[2]; 2 hours incubation ex vivo
  stability after incubation ex vivo: remained stable after 2 hours incubation ex vivo
[2]; Cavia porcellus, ex vivo incubation 2 hours, quadruplicates
  EC50: 30 µM
[3]
  concentration with no sign of toxicity: up to 200 micromolar
[4]
  GLP-1 release (active GLP-1 levels): increasing GLP-1 release
